{"source": "patent US11723894B2", "about": "“Combination product for the treatment of neurological and/or psychiatric disorders” (Consejo Superior de Investigaciones Cientificas (CSIC), priority 2017, dated 2023)", "key": {"[1]": {"tested_on": "dopaminergic neurons of the Substantia nigra pars compacta", "assay": "6-OHDA in vivo model of Parkinson's Disease (injection into Substantia nigra pars compacta)", "parameters": "species or system C57BL/6 mice", "settings": "0.1 μg DMT co-injected with 5 μg 6-OHDA into SNpc, 3 weeks", "experimental": "Example 10: DMT administration prevents dopaminergic cell death in a in vivo model of Parkinson's disease. Adult male C57BL/6 mice (8-12 weeks old) were used in this study. Animals were properly anaesthetized and placed in a stereotaxic apparatus (Kopf Instruments, CA). 6-OHDA (5 μg in […] PBS) was injected into the right side of the Substantia nigra pars compacta (SNpc) (coordinates from Bregma: posterior −3.2 mm; lateral +2.0 mm; ventral: +4.7 mm, according to the atlas of Paxinos and Franklin, The Mouse Brain in Stereotaxic Coordinates. 4. San Diego: Academic Press; 2012). Control animals of the same age were injected with PBS. A third group received an injection with 6-OHDA (5 μg) combined with DMT (0.1 μg) in […] PBS. Mice were then housed individually to recover and sacrificed 3 weeks later. At this point animals were anaesthetized and perfused transcardially with a 4% paraformaldehyde solution. The brains were removed, postfixed in the same solution at 4° C. overnight, cryoprotected in 20% sucrose, frozen, and 30 μm coronal sections were obtained in a cryostat. Free-floating sections were processed for double fluorescent immunohistochemistry. […] Neuronal integrity and specifically dopaminergic cell death was assessed by counting the percentage of TH^+ cells in the SNpc following a stereological approach. […] Images were analyzed using computer-assisted image analysis software (Soft Imaging System Corporation, Lakewood, Colo.). Results were expressed as the percentage of dopaminergic cell loss in the SNpc."}, "astrocytes": {"tested_on": "astrocytes", "assay": "LPS-induced nitrite production (Griess) in primary astrocyte cultures", "format": "cell-based, rat", "experimental": "Example 8: DMT, DET, DPT and 5-MeO-DMT administration in vitro prevents inflammation in rat primary glial cells. […] Rat primary glial cell cultures were prepared from the cerebral cortex of 3 day old rats which were dissected, dissociated, and incubated with 0.25% trypsin/EDTA at 37° C. for 1 h. After centrifugation, the pellet was washed three times with HBSS (Gibco) and the cells were plated in poly-D-lysine (20 μg/mL) pretreated flasks (75 cm2). After 7-10 days, the flasks were agitated in an orbital shaker for 4 h at 230 rpm at 37° C. and non-adherent microglial cells were isolated and plated. Then Dulbecco's Modified Eagle's Medium (DMEM) was added to the flasks, which were agitated in a horizontal shaker at 260 rpm at 37° C. After overnight agitation, the supernatant (oligodendrocytes and some remaining microglial cells) was removed, and astrocytes (adherent cells) were collected. The purity of the cultures was >95%, as determined by immunofluorescence analysis using an anti-glial fibrillary acidic protein (GFAP; clone G-A-5; Sigma-Aldrich) antibody to identify astrocytes, and an anti-Iba1 (Wako Catalog No. 019-19741) antibody to identify microglial cells. On attaining semiconfluence, cells were administered each of the test tryptamines at 1 μM or with the combination test tryptamine+Ritanserin (Rit at 1 μM) 2 h before exposure to lipopolysaccharide (LPS, 10 μg/mL; Sigma-Aldrich) and kept in the presence of each drug or drug combination for 24 h. In combination studies, Rit was added to medium 1h before administration of the corresponding tryptamine. Vehicle-treated cultures were used as a control. After the 24 h drug exposure period, cultures were tested to assess nitrite release. To quantify nitrite concentrations in culture medium, supernatants of glial cultures were collected and mixed with an equal volume of Griess reagent (Sigma-Aldrich). Samples were then incubated at room temperature for 15 min and absorbance was measured at 540 nm on a microplate reader. Results are expressed as the mean±SEM of six replications in three different experiments"}}, "data": [{"smiles": "CN(C)CCc1c[nH]c2ccccc12", "note": "[DMT, N,N-dimethyltryptamine]", "values": [{"measurement": "average percentage of dopaminergic cell loss in the SNpc", "setting": "[1]", "value": 10, "unit": "%"}, {"measurement": "decrease in dopaminergic neurons and increase in activated astroglial and microglial cells (images)", "setting": "[1]", "value": "virtually absent"}, {"measurement": "reduction of LPS-induced nitrite in the presence of Rit", "setting": "astrocytes; Rit 1 μM 1 h before tryptamine 1 μM, then LPS 10 μg/mL 24 h", "value": "maintained"}, {"measurement": "LPS-induced nitrite increases", "setting": "astrocytes; tryptamine 1 μM before LPS 10 μg/mL, 24 h, vs LPS alone", "value": "significantly reduced"}]}]}
